The term IC50 denotes the concentration that inhibits the measured activity by half.

Each structure is given as a SMILES string.

The target of assay [1] is Human plasma kallikrein (Homo sapiens (Human), UniProt P03952). In words: Kallikrein Assay (fluorogenic substrate Acetyl-K-P-R-AFC). The format is biochemical. Particulars: Plasma Kallikrein (PKal). In short, it runs like this: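 Ki is derived from IC50 with the Cheng-Prusoff equation, and IC50 from the inflection point of a four-parameter logistic curve. The rate of AFC release is read with 0.5 nM purified enzyme and […] substrate at room temperature or 37 °C.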

In assay [2] the target is human Factor XIa (Homo sapiens (Human), UniProt P03951). In words: Factor XIa Assay (fluorogenic substrate GPR-AFC). The format is biochemical. Particulars: Factor XIa (FXIa).
Chain of human Factor XIa (P03951 388-625 limits assumed): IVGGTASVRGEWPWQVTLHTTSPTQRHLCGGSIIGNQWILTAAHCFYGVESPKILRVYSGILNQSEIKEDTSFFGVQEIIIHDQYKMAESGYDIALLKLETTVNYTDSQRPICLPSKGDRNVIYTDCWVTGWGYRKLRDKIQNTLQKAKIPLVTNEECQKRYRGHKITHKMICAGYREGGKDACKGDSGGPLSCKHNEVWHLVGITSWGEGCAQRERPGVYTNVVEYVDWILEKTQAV
Chain of human Factor XIa (P03951 19-387 partner limits assumed): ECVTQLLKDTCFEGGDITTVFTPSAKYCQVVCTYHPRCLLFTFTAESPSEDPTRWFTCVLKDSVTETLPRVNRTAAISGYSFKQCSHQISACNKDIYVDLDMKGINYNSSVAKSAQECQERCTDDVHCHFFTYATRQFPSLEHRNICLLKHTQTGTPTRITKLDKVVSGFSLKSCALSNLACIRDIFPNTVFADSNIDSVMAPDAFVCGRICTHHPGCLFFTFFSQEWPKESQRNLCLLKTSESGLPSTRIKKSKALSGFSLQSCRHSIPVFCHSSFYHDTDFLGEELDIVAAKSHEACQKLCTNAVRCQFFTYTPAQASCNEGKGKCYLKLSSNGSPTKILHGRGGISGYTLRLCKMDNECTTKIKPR

Chain of Human plasma kallikrein (P03952 391-638): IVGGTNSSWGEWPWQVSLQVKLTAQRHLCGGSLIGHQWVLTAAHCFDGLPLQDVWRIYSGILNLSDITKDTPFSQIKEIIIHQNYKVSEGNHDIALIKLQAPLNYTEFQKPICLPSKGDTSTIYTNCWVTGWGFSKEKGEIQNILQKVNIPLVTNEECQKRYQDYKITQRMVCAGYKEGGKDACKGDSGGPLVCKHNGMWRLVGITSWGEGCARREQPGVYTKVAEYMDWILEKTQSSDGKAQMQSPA
Chain of Human plasma kallikrein (P03952 20-390 partner): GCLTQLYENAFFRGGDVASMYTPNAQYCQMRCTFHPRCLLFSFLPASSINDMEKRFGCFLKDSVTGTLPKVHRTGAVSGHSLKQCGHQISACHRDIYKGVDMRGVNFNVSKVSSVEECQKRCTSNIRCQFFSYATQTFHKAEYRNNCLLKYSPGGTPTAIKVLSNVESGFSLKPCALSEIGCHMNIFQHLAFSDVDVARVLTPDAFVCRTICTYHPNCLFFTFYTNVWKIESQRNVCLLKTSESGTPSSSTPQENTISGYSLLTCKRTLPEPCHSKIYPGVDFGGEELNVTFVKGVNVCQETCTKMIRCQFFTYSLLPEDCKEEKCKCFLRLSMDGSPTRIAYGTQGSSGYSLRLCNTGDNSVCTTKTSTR

Regarding `Cc1cc(N2C[C@H]3C[C@H]3C2=O)ncc1C(C)n1cc(NC(=O)c2nc(-c3c(C(F)F)ccc(Cl)c3F)cnc2CO)cn1` (single isomer, unassigned) [Example 203, 6-(3-Chloro-6-(difluoromethyl)-2-fluorophenyl)-3-(hydroxymethyl)-N-(1-((S or R)-1-(4-methyl-6-((1R,5S)-2-oxo-3-azabicyclo[3.1.0]hexan-3-yl)pyridin-3-yl)ethyl)-1H-pyrazol-4-yl)pyrazine-2-carboxamide], the figures for the concentration for half-maximal inhibition (IC50) in assay [1] and in assay [2] were 0.3 nM and 282 nM, respectively.

On to `Cc1nc(N2C[C@H]3C[C@H]3C2=O)ncc1C(C)n1cc(NC(=O)c2nc(-c3c(C(F)F)ccc(Cl)c3F)cc(=O)n2C)cn1` (single isomer, unassigned) [Example 79, 4-(3-Chloro-6-(difluoromethyl)-2-fluorophenyl)-1-methyl-N-(1-((S or R)-1-(4-methyl-2-((1R,5S)-2-oxo-3-azabicyclo[3.1.0]hexan-3-yl)pyrimidin-5-yl)ethyl)-1H-pyrazol-4-yl)-6-oxo-1,6-dihydropyrimidine-2-carboxamide], for which the IC50 was 0.5 nM in assay [1] and 57 nM in assay [2].

For `Cc1nc(C(C)n2cc(NC(=O)c3nc(-c4c(C(F)F)ccc(Cl)c4F)cnc3C)cn2)ccc1N1C[C@H]2C[C@H]2C1=O` (single isomer, unassigned) [Example 58, 6-(3-Chloro-6-(difluoromethyl)-2-fluorophenyl)-3-methyl-N-(1-((S or R)-1-(6-methyl-5-((1R,5S)-2-oxo-3-azabicyclo[3.1.0]hexan-3-yl)pyridin-2-yl)ethyl)-1H-pyrazol-4-yl)pyrazine-2-carboxamide], the concentration for half-maximal inhibition (IC50) in assay [1] is 0.6 nM; in assay [2] it was more than 10000 nM.

`CC(c1cnc(N2C[C@H]3C[C@H]3C2=O)c(F)c1)n1cc(NC(=O)c2nc(-c3c(C(F)F)ccc(Cl)c3F)cnc2COC(C)(C)C)cn1` (single isomer, unassigned) [Example 143, 3-(tert-Butoxymethyl)-6-(3-chloro-6-(difluoromethyl)-2-fluorophenyl)-N-(1-((S or R)-1-(5-fluoro-6-((1R,5S)-2-oxo-3-azabicyclo[3.1.0]hexan-3-yl)pyridin-3-yl)ethyl)-1H-pyrazol-4-yl)pyrazine-2-carboxamide]: the 50% inhibitory concentration (IC50) turned out to be 4.9 nM in assay [1] and 4310 nM in assay [2].

`Cc1cc(C(C)n2cc(NC(=O)c3cc(-c4c(C(F)F)ccc(Cl)c4F)nnc3C)cn2)cnc1N1C[C@H]2C[C@H]2C1=O` (single isomer, unassigned) [Example 122, 6-(3-Chloro-6-(difluoromethyl)-2-fluorophenyl)-3-methyl-N-(1-((R or S)-1-(5-methyl-6-((1R,5S)-2-oxo-3-azabicyclo[3.1.0]hexan-3-yl)pyridin-3-yl)ethyl)-1H-pyrazol-4-yl)pyridazine-4-carboxamide]: the 50% inhibitory concentration (IC50) was found to be 14.2 nM in assay [1] and 5260 nM in assay [2].

For `CC(c1cnc(N2C[C@H]3C[C@H]3C2=O)c2c1CCC2)n1cc(NC(=O)c2cncc(-c3c(C(F)F)ccc(Cl)c3F)n2)cn1` (single isomer, unassigned) [Example 142, 6-(3-Chloro-6-(difluoromethyl)-2-fluorophenyl)-N-(1-((R or S)-1-(1-((1R,5S)-2-oxo-3-azabicyclo[3.1.0]hexan-3-yl)-6,7-dihydro-5H-cyclopenta[c]pyridin-4-yl)ethyl)-1H-pyrazol-4-yl)pyrazine-2-carboxamide], the 50% inhibitory concentration (IC50) in assay [1] is 0.6 nM; in assay [2], 373 nM.

Take `Cc1ncc(-c2c(C(F)F)ccc(Cl)c2F)nc1C(=O)Nc1cnn(Cc2cnc(N3C[C@H]4C[C@H]4C3=O)c(N)c2)c1` [Example 191, N-(1-((5-Amino-6-((1R,5S)-2-oxo-3-azabicyclo[3.1.0]hexan-3-yl)pyridin-3-yl)methyl)-1H-pyrazol-4-yl)-6-(3-chloro-6-(difluoromethyl)-2-fluorophenyl)-3-methylpyrazine-2-carboxamide]: the 50% inhibitory concentration (IC50) was determined as 1.1 nM in assay [1] and 111 nM in assay [2].

Regarding `Cc1nc(N2C[C@@H]3C[C@@H]3C2=O)ncc1Cn1cc(NC(=O)c2nc(-c3c(C(F)F)ccc(Cl)c3F)cnc2C)cn1` [Example 34, 6-(3-Chloro-6-(difluoromethyl)-2-fluorophenyl)-3-methyl-N-(1-((4-methyl-2-((1S,5R)-2-oxo-3-azabicyclo[3.1.0]hexan-3-yl)pyrimidin-5-yl)methyl)-1H-pyrazol-4-yl)pyrazine-2-carboxamide], the half-inhibitory concentration (IC50) in assay [1] was 19.3 nM; in assay [2], 2890 nM.

On to `Cc1nc(C(C)n2cc(NC(=O)c3nc(-c4c(C(F)F)ccc(Cl)c4F)cnc3CO)cn2)cnc1N1C[C@H]2C[C@H]2C1=O` (single isomer, unassigned) [Example 198, 6-(3-Chloro-6-(difluoromethyl)-2-fluorophenyl)-3-(hydroxymethyl-N-(1-((R or S)-I-(6-methyl-5-((1R,5S)-2-oxo-3-azabicyclo[3.1.0]hexan-3-yl)pyrazin-2-yl)ethyl)-1H-pyrazol-4-yl)pyrazine-2-carboxamide], for which the concentration for half-maximal inhibition (IC50) in assay [1] is 0.1 nM; in assay [2], 110 nM.

Consider `COc1cc(Cn2cc(NC(=O)c3cncc(-c4c(C(F)F)ccc(Cl)c4F)n3)cn2)cnc1N1C[C@H]2C[C@H]2C1=O` [Example 49, 6-(3-Chloro-6-(difluoromethyl)-2-fluorophenyl)-N-(1-((5-methoxy-6-((1R,5S)-2-oxo-3-azabicyclo[3.1.0]hexan-3-yl)pyridin-3-yl)methyl)-1H-pyrazol-4-yl)pyrazine-2-carboxamide], for which the IC50 in assay [1] worked out at 3.5 nM; in assay [2] it was 423 nM.

`Cc1cc(C(C)n2cc(NC(=O)c3cncc(-c4c(C(F)F)ccc(Cl)c4F)n3)cn2)cnc1N1C[C@H]2C[C@H]2C1=O` (single isomer, unassigned) [Example 67, 6-(3-Chloro-6-(difluoromethyl)-2-fluorophenyl)-N-(1-((R or S)-1-(5-methyl-6-((1R,5S)-2-oxo-3-azabicyclo[3.1.0]hexan-3-yl)pyridin-3-yl)ethyl)-1H-pyrazol-4-yl)pyrazine-2-carboxamide]: the IC50 in assay [1] amounted to 2.1 nM; in assay [2], 389 nM.

As to `Cc1cc(N2C[C@H]3C[C@H]3C2=O)ncc1Cn1cc(NC(=O)c2cncc(-c3c(C(F)F)ccc(Cl)c3F)n2)cn1` [Example 57, 6-(3-Chloro-6-(difluoromethyl)-2-fluorophenyl)-N-(1-((4-methyl-6-((1R,5S)-2-oxo-3-azabicyclo[3.1.0]hexan-3-yl)pyridin-3-yl)methyl)-1H-pyrazol-4-yl)pyrazine-2-carboxamide], the half-maximal inhibitory concentration (IC50) worked out at 4.9 nM in assay [1] and 1890 nM in assay [2].

With `Cc1ncc(-c2c(C(F)F)ccc(Cl)c2F)nc1C(=O)Nc1cnn(C(C)c2cnc(N3C[C@H]4C[C@H]4C3=O)c3c2OCO3)c1` (single isomer, unassigned) [Example 253, 6-(3-Chloro-6-(difluoromethyl)-2-fluorophenyl)-3-methyl-N-(1-((S or R)-1-(4-((1R,5S)-2-oxo-3-azabicyclo[3.1.0]hexan-3-yl)-[1,3]dioxolo[4,5-c]pyridin-7-yl)ethyl)-IH-pyrazol-4-yl)pyrazine-2-carboxamide], the IC50 in assay [1] turned out to be 2.2 nM; in assay [2], 733 nM.

Take `Cc1nc(C(C)n2cc(NC(=O)c3cncc(-c4c(OC(F)F)ccc(Cl)c4F)n3)cn2)cnc1N1C[C@H]2C[C@H]2C1=O` (single isomer, unassigned) [Example 16, 6-(3-Chloro-6-(difluoromethoxy)-2-fluorophenyl)-N-(1-((S or R)-1-(6-methyl-5-((1R,5S)-2-oxo-3-azabicyclo[3.1.0]hexan-3-yl)pyrazin-2-yl)ethyl)-1H-pyrazol-4-yl)pyrazine-2-carboxamide]: the 50% inhibitory concentration (IC50) was 1.9 nM in assay [1] and 772 nM in assay [2].

`Cc1ncc(-c2c(C(F)F)ccc(Cl)c2F)nc1C(=O)Nc1cnn(C(C)c2ncc(N3C[C@H]4C[C@H]4C3=O)c(C)c2F)c1` (single isomer, unassigned) [Example 245, 6-(3-Chloro-6-(difluoromethyl)-2-fluorophenyl)-N-(1-((S or R)-1-(3-fluoro-4-methyl-5-((1R,5S)-2-oxo-3-azabicyclo[3.1.0]hexan-3-yl)pyridin-2-yl)ethyl)-1H-pyrazol-4-yl)-3-methylpyrazine-2-carboxamide]: the IC50 in assay [1] was 0.9 nM; in assay [2], more than 10000 nM.

With `Cc1nc(C(C)n2cc(NC(=O)c3nc(-c4c(C(F)F)ccc(Cl)c4F)cnc3CO)cn2)cnc1N1C[C@H]2C[C@H]2C1=O` (single isomer, unassigned) [Example 197, 6-(3-Chloro-6-(difluoromethyl)-2-fluorophenyl)-3-(hydroxymethyl)-N-(1-((S or R)-1-(6-methyl-5-((1R,5S)-2-oxo-3-azabicyclo[3.1.0]hexan-3-yl)pyrazin-2-yl)ethyl)-1H-pyrazol-4-yl)pyrazine-2-carboxamide], the IC50 in assay [1] came to 0.2 nM; in assay [2], 48 nM.

As for `Cc1ncc(-c2c(OC(F)F)ccc(Cl)c2F)nc1C(=O)Nc1cnn(C(C)c2cnc(N3C[C@H]4C[C@H]4C3=O)c(F)c2C)c1` (single isomer, unassigned) [Example 130, 6-(3-Chloro-6-(difluoromethoxy)-2-fluorophenyl)-N-(1-((R or S)-1-(5-fluoro-4-methyl-6-((1R,5S)-2-oxo-3-azabicyclo[3.1.0]hexan-3-yl)pyridin-3-yl)ethyl)-1H-pyrazol-4-yl)-3-methylpyrazine-2-carboxamide], the IC50 in assay [1] came out at 0.8 nM; in assay [2], 549 nM.

For the compound `O=C(Nc1cnn(Cc2cnc(N3C[C@H]4C[C@H]4C3=O)nc2)c1)c1cncc(-c2c(C(F)F)ccc(Cl)c2F)n1` [Example 25, 6-(3-Chloro-6-(difluoromethyl)-2-fluorophenyl)-N-(1-((2-((1R,5S)-2-oxo-3-azabicyclo-[3.1.0]hexan-3-yl)pyrimidin-5-yl)methyl)-1H-pyrazol-4-yl)pyrazine-2-carboxamide], the values for the IC50 in assay [1] and in assay [2] were 27.7 nM and 4690 nM, respectively.

As for `Cc1ncc(-c2c(C(F)F)ccc(Cl)c2F)nc1C(=O)Nc1cnn([C@@H](C)c2cnc(N3C[C@H]4C[C@H]4C3=O)c(N)c2)c1` [Example 189], the IC50 in assay [1] was 1.3 nM; in assay [2], 667 nM.
